Measured values from PubChem BioAssay AID1963982 (Molecular Pharmacology Branch, DTP, NCI, 2024).
One block for each molecule: values may come before it.

Tested on: 313798-341-R-J2-PDC spheroids, viability
Experiment: Anticancer human tumor 313798-341-R-J2-PDC patient-derived cervical squamous cell carcinoma cell line growth inhibition [PI3K]
Conditions: spheroids with HUVEC and MSC; for IC50: curve of first compound; for viability, T/C: stronger effect = lower value
Procedure, shortened: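 We assembled tumor spheroids that included a stromal compartment of HUVEC and MSCs, then exposed them to targeted agents alone and together with PI3K pathway inhibitors. Concentration series descended by half-log from clinically achievable Cmax levels. Viability served as the endpoint.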

[1] = second compound 0.0316 µM, first compound 0.0316 µM
[2] = second compound 0.0316 µM, first compound 0.1 µM
[3] = second compound 0.0316 µM, first compound 0.316 µM
[4] = second compound 0.0316 µM, first compound 1 µM
[5] = second compound 0.0316 µM, first compound 3.16 µM
[6] = second compound 0.0316 µM, first compound 10 µM
[7] = second compound 0.1 µM, first compound 0.0316 µM
[8] = second compound 0.1 µM, first compound 0.1 µM
[9] = second compound 0.1 µM, first compound 0.316 µM
[10] = second compound 0.1 µM, first compound 1 µM
[11] = second compound 0.1 µM, first compound 3.16 µM
[12] = second compound 0.1 µM, first compound 10 µM
[13] = second compound 0.316 µM, first compound 0.0316 µM
[14] = second compound 0.316 µM, first compound 0.1 µM
[15] = second compound 0.316 µM, first compound 0.316 µM
[16] = second compound 0.316 µM, first compound 1 µM
[17] = second compound 0.316 µM, first compound 3.16 µM
[18] = second compound 0.316 µM, first compound 10 µM
[19] = second compound 1 µM, first compound 0.0316 µM
[20] = second compound 1 µM, first compound 0.1 µM
[21] = second compound 1 µM, first compound 0.316 µM
[22] = second compound 1 µM, first compound 1 µM
[23] = second compound 1 µM, first compound 3.16 µM
[24] = second compound 1 µM, first compound 10 µM
[25] = second compound 3.16 µM, first compound 0.0316 µM
[26] = second compound 3.16 µM, first compound 0.1 µM
[27] = second compound 3.16 µM, first compound 0.316 µM
[28] = second compound 3.16 µM, first compound 1 µM
[29] = second compound 3.16 µM, first compound 3.16 µM
[30] = second compound 3.16 µM, first compound 10 µM
[31] = second compound 10 µM, first compound 0.0316 µM
[32] = second compound 10 µM, first compound 0.1 µM
[33] = second compound 10 µM, first compound 0.316 µM
[34] = second compound 10 µM, first compound 1 µM
[35] = second compound 10 µM, first compound 3.16 µM
[36] = second compound 10 µM, first compound 10 µM
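Note: spheroids exposed to compounds for seven days.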
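Throughout, for viability, T/C: 100% = DMSO vehicle control viability.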

IC50 (second compound 0.0316 µM): > 10000 nM | IC50 (second compound 0.1 µM): > 10000 nM | IC50 (second compound 0.316 µM): > 10000 nM | IC50 (second compound 1 µM): > 10000 nM | IC50 (second compound 3.16 µM): > 10000 nM | IC50 (second compound 10 µM): > 10000 nM
SMILES: C=CC(=O)N1CCN(c2nc(=O)n(-c3c(C)ccnc3C(C)C)c3nc(-c4c(O)cccc4F)c(F)cc23)C(C)C1 (stereo not drawn) + CC(Nc1ncnc2nc[nH]c12)c1cc2cccc(Cl)c2c(=O)n1-c1ccccc1
viability, T/C [1]: 112% | viability, T/C [2]: 102% | viability, T/C [3]: 113% | viability, T/C [4]: 100% | viability, T/C [5]: 103% | viability, T/C [6]: 94.9% | viability, T/C [7]: 89.4% | viability, T/C [8]: 96.2% | viability, T/C [9]: 99.1% | viability, T/C [10]: 99.8% | viability, T/C [11]: 102% | viability, T/C [12]: 102% | viability, T/C [13]: 106% | viability, T/C [14]: 91.5% | viability, T/C [15]: 106% | viability, T/C [16]: 98.1% | viability, T/C [17]: 104% | viability, T/C [18]: 92.9% | viability, T/C [19]: 102% | viability, T/C [20]: 95.4% | viability, T/C [21]: 102% | viability, T/C [22]: 90.3% | viability, T/C [23]: 98.2% | viability, T/C [24]: 102% | viability, T/C [25]: 110% | viability, T/C [26]: 94.1% | viability, T/C [27]: 87.6% | viability, T/C [28]: 99.5% | viability, T/C [29]: 100% | viability, T/C [30]: 91.9% | viability, T/C [31]: 87.7% | viability, T/C [32]: 85.2% | viability, T/C [33]: 98.2% | viability, T/C [34]: 84.1% | viability, T/C [35]: 90.4% | viability, T/C [36]: 78.3%

IC50 (second compound 0.0316 µM): > 1000 nM | IC50 (second compound 0.1 µM): > 1000 nM | IC50 (second compound 0.316 µM): > 1000 nM | IC50 (second compound 1 µM): > 1000 nM | IC50 (second compound 3.16 µM): > 1000 nM | IC50 (second compound 10 µM): > 1000 nM
SMILES: CCN1CCN(Cc2ccc(Nc3ncc(F)c(-c4cc(F)c5nc(C)n(C(C)C)c5c4)n3)nc2)CC1 + CC(Nc1ncnc2nc[nH]c12)c1cc2cccc(Cl)c2c(=O)n1-c1ccccc1
viability, T/C (second compound 0.0316 µM, first compound 0.00316 µM): 98.9% | viability, T/C (second compound 0.0316 µM, first compound 0.01 µM): 98.3% | viability, T/C [1]: 114% | viability, T/C [2]: 114% | viability, T/C [3]: 96% | viability, T/C [4]: 123% | viability, T/C (second compound 0.1 µM, first compound 0.00316 µM): 105% | viability, T/C (second compound 0.1 µM, first compound 0.01 µM): 110% | viability, T/C [7]: 103% | viability, T/C [8]: 113% | viability, T/C [9]: 102% | viability, T/C [10]: 115% | viability, T/C (second compound 0.316 µM, first compound 0.00316 µM): 94.5% | viability, T/C (second compound 0.316 µM, first compound 0.01 µM): 100% | viability, T/C [13]: 92.3% | viability, T/C [14]: 96.9% | viability, T/C [15]: 104% | viability, T/C [16]: 107% | viability, T/C (second compound 1 µM, first compound 0.00316 µM): 104% | viability, T/C (second compound 1 µM, first compound 0.01 µM): 95.3% | viability, T/C [19]: 99.8% | viability, T/C [20]: 101% | viability, T/C [21]: 104% | viability, T/C [22]: 109% | viability, T/C (second compound 3.16 µM, first compound 0.00316 µM): 103% | viability, T/C (second compound 3.16 µM, first compound 0.01 µM): 94.6% | viability, T/C [25]: 98.1% | viability, T/C [26]: 99.8% | viability, T/C [27]: 108% | viability, T/C [28]: 89.8% | viability, T/C (second compound 10 µM, first compound 0.00316 µM): 100% | viability, T/C (second compound 10 µM, first compound 0.01 µM): 91.5% | viability, T/C [31]: 83.9% | viability, T/C [32]: 85.8% | viability, T/C [33]: 82.4% | viability, T/C [34]: 89.5%

IC50 (second compound 0.0316 µM): 777 nM | IC50 (second compound 0.1 µM): 984 nM | IC50 (second compound 0.316 µM): 1100 nM | IC50 (second compound 1 µM): 1080 nM | IC50 (second compound 3.16 µM): 790 nM | IC50 (second compound 10 µM): 785 nM
SMILES: Cn1ncc(Cl)c1-c1cc(C(=O)NC(CN)Cc2cccc(F)c2)sc1Cl (stereo not drawn) + CC(Nc1ncnc2nc[nH]c12)c1cc2cccc(Cl)c2c(=O)n1-c1ccccc1
viability, T/C [1]: 86.5% | viability, T/C [2]: 82.8% | viability, T/C [3]: 73.1% | viability, T/C [4]: 43.1% | viability, T/C [5]: 34.9% | viability, T/C [6]: 30.9% | viability, T/C [7]: 108% | viability, T/C [8]: 89.5% | viability, T/C [9]: 84.4% | viability, T/C [10]: 48.6% | viability, T/C [11]: 32.2% | viability, T/C [12]: 34.8% | viability, T/C [13]: 97.5% | viability, T/C [14]: 92.8% | viability, T/C [15]: 70.8% | viability, T/C [16]: 54.9% | viability, T/C [17]: 32.2% | viability, T/C [18]: 30.9% | viability, T/C [19]: 101% | viability, T/C [20]: 88.2% | viability, T/C [21]: 77.9% | viability, T/C [22]: 47.5% | viability, T/C [23]: 38.8% | viability, T/C [24]: 29% | viability, T/C [25]: 107% | viability, T/C [26]: 86.1% | viability, T/C [27]: 62.4% | viability, T/C [28]: 49.3% | viability, T/C [29]: 32.5% | viability, T/C [30]: 30.8% | viability, T/C [31]: 87% | viability, T/C [32]: 78.1% | viability, T/C [33]: 67.8% | viability, T/C [34]: 46.5% | viability, T/C [35]: 27.7% | viability, T/C [36]: 25.8%

IC50 (second compound 0.0316 µM): > 10000 nM | IC50 (second compound 0.1 µM): > 10000 nM | IC50 (second compound 0.316 µM): > 10000 nM | IC50 (second compound 1 µM): > 10000 nM | IC50 (second compound 3.16 µM): > 10000 nM | IC50 (second compound 10 µM): > 10000 nM
SMILES: Cn1nccc1Nc1nccc(-c2ccn(C(CO)c3ccc(Cl)c(F)c3)c(=O)c2)n1 (stereo not drawn) + CC(Nc1ncnc2nc[nH]c12)c1cc2cccc(Cl)c2c(=O)n1-c1ccccc1
viability, T/C [1]: 92.4% | viability, T/C [2]: 94.5% | viability, T/C [3]: 90.1% | viability, T/C [4]: 99.1% | viability, T/C [5]: 91.3% | viability, T/C [6]: 95.1% | viability, T/C [7]: 100% | viability, T/C [8]: 108% | viability, T/C [9]: 97.7% | viability, T/C [10]: 104% | viability, T/C [11]: 105% | viability, T/C [12]: 94.2% | viability, T/C [13]: 114% | viability, T/C [14]: 95.7% | viability, T/C [15]: 90.2% | viability, T/C [16]: 95% | viability, T/C [17]: 110% | viability, T/C [18]: 101% | viability, T/C [19]: 102% | viability, T/C [20]: 85.4% | viability, T/C [21]: 107% | viability, T/C [22]: 98.9% | viability, T/C [23]: 93.5% | viability, T/C [24]: 94.1% | viability, T/C [25]: 97.6% | viability, T/C [26]: 96% | viability, T/C [27]: 94.1% | viability, T/C [28]: 87.7% | viability, T/C [29]: 89.9% | viability, T/C [30]: 90.6% | viability, T/C [31]: 98.8% | viability, T/C [32]: 75.3% | viability, T/C [33]: 77.8% | viability, T/C [34]: 78.7% | viability, T/C [35]: 85.8% | viability, T/C [36]: 73.8%
